Measurements: ChEMBL document CHEMBL2073839, “Heterologous expression and functional characterization of a mouse renal organic anion transporter in mammalian cells” (J Biol Chem, 1999)

Experiments:
Format in all cases: functional, cell-based
[1] = target: T1, Solute carrier family 22 member 6 (Mus musculus, UniProt Q8VC69); assay: TP_TRANSPORTER: inhibition of PAH uptake (PAH: 20 uM, alpha-KG: 1000 uM) in OAT-expressing COS-7 cells; details: monkey, cos-7, 1000 µM
T1 sequence (Q8VC69 whole entry): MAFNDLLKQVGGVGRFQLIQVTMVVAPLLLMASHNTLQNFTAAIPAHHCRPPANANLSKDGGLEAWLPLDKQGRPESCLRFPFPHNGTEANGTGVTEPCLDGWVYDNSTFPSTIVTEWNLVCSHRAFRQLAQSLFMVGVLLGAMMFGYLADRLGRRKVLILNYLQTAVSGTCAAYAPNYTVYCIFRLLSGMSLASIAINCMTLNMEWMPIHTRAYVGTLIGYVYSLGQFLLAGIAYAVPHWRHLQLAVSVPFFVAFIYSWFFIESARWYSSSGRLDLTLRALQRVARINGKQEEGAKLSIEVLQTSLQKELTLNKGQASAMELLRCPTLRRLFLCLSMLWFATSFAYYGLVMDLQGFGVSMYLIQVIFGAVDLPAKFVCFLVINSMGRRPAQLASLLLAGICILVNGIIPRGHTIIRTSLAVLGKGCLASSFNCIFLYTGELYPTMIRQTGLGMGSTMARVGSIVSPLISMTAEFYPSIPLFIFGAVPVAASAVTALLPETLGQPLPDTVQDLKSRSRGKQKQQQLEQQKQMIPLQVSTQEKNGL

[2] = target: T1, Solute carrier family 22 member 6; assay: TP_TRANSPORTER: inhibition of PAH uptake (PAH: 20 uM, Captopril: 1000 uM) in OAT-expressing COS-7 cells; details: monkey, cos-7, 1000 µM
[3] = target: T1, Solute carrier family 22 member 6; assay: TP_TRANSPORTER: inhibition of PAH uptake (PAH: 20 uM, Carprofen: 1000 uM) in OAT-expressing COS-7 cells; details: monkey, cos-7, 1000 µM
[4] = target: T1, Solute carrier family 22 member 6; assay: TP_TRANSPORTER: inhibition of PAH uptake (PAH: 20 uM, Diclofenac: 1000 uM) in OAT-expressing COS-7 cells; details: monkey, cos-7, 1000 µM
[5] = target: T1, Solute carrier family 22 member 6; assay: TP_TRANSPORTER: inhibition of PAH uptake (PAH: 20 uM, Enalapril: 1000 uM) in OAT-expressing COS-7 cells; details: monkey, cos-7, 1000 µM
[6] = target: T1, Solute carrier family 22 member 6; assay: TP_TRANSPORTER: inhibition of PAH uptake (PAH: 20 uM, Folic acid: 1000 uM) in OAT-expressing COS-7 cells; details: monkey, cos-7, 1000 µM
[7] = target: T1, Solute carrier family 22 member 6; assay: TP_TRANSPORTER: inhibition of PAH uptake (PAH: 20 uM, Indomethacin: 1000 uM) in OAT-expressing COS-7 cells; details: monkey, cos-7, 1000 µM
[8] = target: T1, Solute carrier family 22 member 6; assay: TP_TRANSPORTER: inhibition of PAH uptake (PAH: 20 uM, Pantothenic acid: 1000 uM) in OAT-expressing COS-7 cells; details: monkey, cos-7, 1000 µM
[9] = target: T1, Solute carrier family 22 member 6; assay: TP_TRANSPORTER: inhibition of PAH uptake (PAH: 20 uM, Riboflavin: 1000 uM) in OAT-expressing COS-7 cells; details: monkey, cos-7, 1000 µM
[10] = target: T1, Solute carrier family 22 member 6; assay: TP_TRANSPORTER: inhibition of PAH uptake (PAH: 20 uM, Semustine: 300 uM) in OAT-expressing COS-7 cells; details: monkey, cos-7, 300 µM
[11] = target: T1, Solute carrier family 22 member 6; assay: TP_TRANSPORTER: inhibition of PAH uptake (PAH: 20 uM, Sulindac: 1000 uM) in OAT-expressing COS-7 cells; details: monkey, cos-7, 1000 µM

## O=C(O)CCC(=O)C(=O)O [ALPHA-KETOGLUTARIC ACID]
[1]
  Activity: inhibitor [(at a rough estimate) 10 % of control]

## C[C@H](CS)C(=O)N1CCC[C@H]1C(=O)O [CAPTOPRIL]
[2]
  Activity: inhibitor [(at a rough estimate) 50 % of control]

## CC(C(=O)O)c1ccc2c(c1)[nH]c1ccc(Cl)cc12 (stereo unspecified) [CARPROFEN]
[3]
  Activity: inhibitor [(at a rough estimate) 5 % of control]

## O=C(O)Cc1ccccc1Nc1c(Cl)cccc1Cl [DICLOFENAC]
[4]
  Activity: inhibitor [(at a rough estimate) 5 % of control]

## CCOC(=O)[C@H](CCc1ccccc1)N[C@@H](C)C(=O)N1CCC[C@H]1C(=O)O [ENALAPRIL]
[5]
  Activity: inhibitor [(at a rough estimate) 45 % of control]

## Nc1nc2ncc(CNc3ccc(C(=O)N[C@@H](CCC(=O)O)C(=O)O)cc3)nc2c(=O)[nH]1 [FOLIC ACID]
[6]
  Activity: inhibitor [(at a rough estimate) 55 % of control]

## COc1ccc2c(c1)c(CC(=O)O)c(C)n2C(=O)c1ccc(Cl)cc1 [INDOMETHACIN]
[7]
  Activity: inhibitor [(at a rough estimate) 5 % of control]

## CC(C)(CO)[C@@H](O)C(=O)NCCC(=O)O [PANTOTHENIC ACID]
[8]
  Activity: inhibitor [(at a rough estimate) 60 % of control]

## Cc1cc2nc3c(=O)[nH]c(=O)nc-3n(C[C@H](O)[C@H](O)[C@H](O)CO)c2cc1C [RIBOFLAVIN]
[9]
  Activity: inhibitor [(at a rough estimate) 40 % of control]

## CC1CCC(NC(=O)N(CCCl)N=O)CC1 (stereo unspecified) [SEMUSTINE]
[10]
  Activity: inhibitor [(at a rough estimate) 35 % of control]

## CC1=C(CC(=O)O)c2cc(F)ccc2/C1=C\c1ccc([S+](C)[O-])cc1 (stereo unspecified) [SULINDAC]
[11]
  Activity: inhibitor [(at a rough estimate) 5 % of control]
